Laboratory results as given in patent publication US20240246940A1, “HETEROARYL DERIVATIVE COMPOUND AND USE THEREOF” (VORONOI INC., priority 2021, published 2024).

Assays:
[1] = system: SK-BR-3 cells (HER2 overexpressing cell line); assay: SK-BR-3 cell proliferation inhibitory activity (CellTiter-Glo, 120 hours); assay type: cell-based; details: Homo sapiens
Method: (§1) To evaluate the cell proliferation inhibitory activity of the compound according to the present invention on HER2 and EGFR kinases, the following method was performed using HER2 overexpressing cell lines (SK-BR-3, BT-474, and N-87) and EGFR expressing cell line (HaCaT).
(§2) McCOY'S 5A supplemented with 10% FBS was used for SK-BR-3 cells, RPMI-1640 medium supplemented with 20% FBS was used for BT-474 cancer cells, and RPMI-1640 medium supplemented with 10% FBS was used for N-87 cancer cells. DMEM supplemented with 10% FBS was used for HaCaT cells.
(§3) For SK-BR-3 cells, 5000 cells were aliquoted into each well of a white clear bottom 96 well plate (Corning) 48 hours before treatment with the compounds of Examples. For BT-474 cells, 5000 cells were aliquoted into each well of a white clear bottom 96 well plate (Corning) 48 hours before treatment with the compounds of Examples. For N-87 cells, 5000 cells were aliquoted into each well of a white clear bottom 96 well plate (Corning) 24 hours before treatment with the compounds of Examples. For HaCaT cells, 3000 cells were aliquoted into each well of a white clear bottom 96 well plate (Corning) 24 hours before treatment with the compounds of Examples. For SK-BR-3 cells and BT-474 cells, the compounds of Examples were diluted in dimethyl sulfoxide (three-fold dilution, a total of 11 concentrations) and injected each in an amount of 1 μl to a final concentration of 0.2 nM to 10 μM. For N-87 cells, the compounds of Examples were diluted in dimethyl sulfoxide (five-fold dilution, a total of 11 concentrations) and injected each in an amount of 0.5 μl to a final concentration of […] to 5 μM. For HaCaT cells, the compounds of Examples were diluted in dimethyl sulfoxide (three-fold dilution, a total of 11 concentrations) and injected each in an amount of 0.5 μl to a final concentration of 0.8 nM to 45 μM. For the measurement of living cells, the cells were stored at room temperature for 10 minutes using CellTiter-Glo cell viability reagent (Promega) after a certain period of time (SK-BR-3: 120 hours, BT-474: 120 hours, N-87: 72 hours, and HaCaT: 72 hours) post treatment with the compounds of Examples, and the luminescence intensity thereof was measured using a reader (SynergyNeo, Biotek). Each test was repeated three times.
(§4) The result values were calculated as a cell growth rate (%) compared to those of the control group. A graph was created using the GraphPad Prism version 5.0 program, and GI50 values were calculated.

[2] = system: HaCaT cells (EGFR expressing cell line); assay: HaCaT cell proliferation inhibitory activity (CellTiter-Glo, 72 hours); assay type: cell-based; details: Homo sapiens
Method: as §1, §2, §3, §4

Row | SMILES | GI50 [1] [nM] | GI50 [2] [nM]
1 | C=CC(=O)N1CC[C@@H](Oc2cc3c(Nc4cc(-c5ccco5)ccc4OC)ncnc3cc2OC)[C@H](F)C1 (relative stereo) [Example 179, 1-(trans-3-fluoro-4-((4-((5-(furan-2-yl)-2-methoxyphenyl)amino)-7-methoxy-quinazolin-6-yl)oxy)piperidin-1-yl)prop-2-en-1-one] | ≤ 150 | ≤ 150
2 | C=CC(=O)N1CC(Oc2cc3c(Nc4cc(-c5cccc(C(F)(F)F)c5)ccc4OC)ncnc3cc2OC)C1 [Example 9, 1-(3-((7-methoxy-4-((4-methoxy-3′-(trifluoromethyl)-[1,1′-biphenyl]-3-yl)amino)quinazolin-6-yl)oxy)azetidin-1-yl)prop-2-en-1-one] | 150 to 1000 | 150 to 1000
3 | C=CC(=O)N1CC(Oc2cc3c(Nc4cc(-c5cc(F)ccc5F)ccc4OC)ncnc3cc2OC)C1 [Example 10, 1-(3-((4-((2′,5′-difluoro-4-methoxy-[1,1′-biphenyl]-3-yl)amino)-7-methoxy-quinazolin-6-yl)oxy)azetidin-1-yl)prop-2-en-1-one] | ≤ 150 | ≤ 150
4 | C=CC(=O)N1CC(Oc2cc3c(Nc4cc(-c5cccc(C#N)c5)ccc4OC)ncnc3cc2OC)C1 [Example 12, 3′-((6-((1-acryloylazetidin-3-yl)oxy)-7-methoxy-quinazolin-4-yl)amino)-4′-methoxy-[1,1′-biphenyl]-3-carbonitrile] | ≤ 150 | ≤ 150
5 | C=CC(=O)N1CC(Oc2cc3c(Nc4cc(-c5ccc(F)cc5F)ccc4OC)ncnc3cc2OC)C1 [Example 13, 1-(3-((4-((2′,4′-difluoro-4-methoxy-[1,1′-biphenyl]-3-yl)amino)-7-methoxy-quinazolin-6-yl)oxy)azetidin-1-yl)prop-2-en-1-one] | ≤ 150 | ≤ 150
6 | C=CC(=O)N1CC(Oc2cc3c(Nc4cc(-c5ccc(F)c(C#N)c5)ccc4OC)ncnc3cc2OC)C1 [Example 14, 3′-((6-((1-acryloylazetidin-3-yl)oxy)-7-methoxy-quinazolin-4-yl)amino)-4-fluoro-4′-methoxy-[1,1′-biphenyl]-3-carbonitrile] | ≤ 150 | ≤ 150
7 | C=CC(=O)N1CC(Oc2cc3c(Nc4cc(-c5cccc(F)c5Cl)ccc4OC)ncnc3cc2OC)C1 [Example 18, 1-(3-((4-((2′-chloro-3′-fluoro-4-methoxy-[1,1′-biphenyl]-3-yl)amino)-7-methoxy-quinazolin-6-yl)oxy)azetidin-1-yl)prop-2-en-1-one] | ≤ 150 | ≤ 150
8 | C=CC(=O)N1CC(Oc2cc3c(Nc4cc(-c5cccc(Cl)c5F)ccc4OC)ncnc3cc2OC)C1 [Example 20, 1-(3-((4-((3′-chloro-2′-fluoro-4-methoxy-[1,1′-biphenyl]-3-yl)amino)-7-methoxy-quinazolin-6-yl)oxy)azetidin-1-yl)prop-2-en-1-one] | ≤ 150 | ≤ 150
9 | C=CC(=O)N1CC(Oc2cc3c(Nc4cc(-c5ccc(F)cc5C)ccc4OC)ncnc3cc2OC)C1 [Example 25, 1-(3-((4-((4'-fluoro-4-methoxy-2′-methyl-[1,1′-biphenyl]-3-yl)amino)-7-methoxy-quinazolin-6-yl)oxy)azetidin-1-yl)prop-2-en-1-one] | ≤ 150 | ≤ 150
10 | C=CC(=O)N1CCC(Oc2cc3c(Nc4cc(-c5ccccc5)ccc4OC)ncnc3cc2OC)CC1 [Example 65, 1-(4-((7-methoxy-4-((4-methoxy-[1,1′-biphenyl]-3-yl)amino)quinazolin-6-yl)oxy)piperidin-1-yl)prop-2-en-1-one] | ≤ 150 | 
11 | C=CC(=O)N1CCC(Oc2cc3c(Nc4cc(-c5ccoc5)ccc4OC)ncnc3cc2OC)CC1 [Example 81, 1-(4-((4-((5-(furan-3-yl)-2-methoxyphenyl)amino)-7-methoxy-quinazolin-6-yl)oxy)piperidin-1-yl)prop-2-en-1-one] | 150 to 1000 | 

Continued, in another order:

Row | GI50 [1] [nM] | SMILES | GI50 [2] [nM]
12 | ≤ 150 | C=CC(=O)N1CC(Oc2cc3c(Nc4cc(-c5cccc(F)c5)ccc4OC)ncnc3cc2OC)C1 [Example 8, 1-(3-((4-((3′-fluoro-4-methoxy-[1,1′-biphenyl]-3-yl)amino)-7-methoxy-quinazolin-6-yl)oxy)azetidin-1-yl)prop-2-en-1-one] | ≤ 150
13 | 150 to 1000 | C=CC(=O)N1CC(Oc2cc3c(Nc4cc(-c5cc(F)cc(F)c5)ccc4OC)ncnc3cc2OC)C1 [Example 11, 1-(3-((4-((3′,5′-difluoro-4-methoxy-[1,1′-biphenyl]-3-yl)amino)-7-methoxy-quinazolin-6-yl)oxy)azetidin-1-yl)prop-2-en-1-one] | ≤ 150
14 | ≤ 150 | C=CC(=O)N1CC(Oc2cc3c(Nc4cc(-c5ccc(Cl)cc5F)ccc4OC)ncnc3cc2OC)C1 [Example 15, 1-(3-((4-((4′-chloro-2′-fluoro-4-methoxy-[1,1′-biphenyl]-3-yl)amino)-7-methoxy-quinazolin-6-yl)oxy)azetidin-1-yl)prop-2-en-1-one] | ≤ 150
15 | ≤ 150 | C=CC(=O)N1CC(Oc2cc3c(Nc4cc(-c5cccc(F)c5F)ccc4OC)ncnc3cc2OC)C1 [Example 19, 1-(3-((4-((2′,3′-difluoro-4-methoxy-[1,1′-biphenyl]-3-yl)amino)-7-methoxy-quinazolin-6-yl)oxy)azetidin-1-yl) prop-2-en-1-one] | ≤ 150
16 | 150 to 1000 | C=CC(=O)N1CC(Oc2cc3c(Nc4cc(-c5cccc(F)c5C)ccc4OC)ncnc3cc2OC)C1 [Example 23, 1-(3-((4-((3′-fluoro-4-methoxy-2′-methyl-[1,1′-biphenyl]-3-yl)amino)-7-methoxy-quinazolin-6-yl)oxy)azetidin-1-yl)prop-2-en-1-one] | ≤ 150
17 | 150 to 1000 | C=CC(=O)N1CCC(Oc2cc3c(Nc4cc(-c5ccccc5)ccc4OC)ncnc3cc2OC)C1 (centres unmarked) [Example 58, 1-(3-((7-methoxy-4-((4-methoxy-[1,1′-biphenyl]-3-yl)amino)quinazolin-6-yl)oxy)pyrrolidin-1-yl)prop-2-en-1-one] | 
18 | 150 to 1000 | C=CC(=O)N1CCC(Oc2cc3c(Nc4cc(-c5cccs5)ccc4OC)ncnc3cc2OC)C1 (centres unmarked) [Example 63, 1-(3-((7-methoxy-4-((2-methoxy-5-(thiophen-2-yl)phenyl)amino)quinazolin-6-yl)oxy)pyrrolidin-1-yl)prop-2-en-1-one] | 
19 | 150 to 1000 | C=CC(=O)N1CCC(Oc2cc3c(Nc4cc(-c5ccoc5)ccc4OC)ncnc3cc2OC)C1 (centres unmarked) [Example 64, 1-(3-((4-((5-(furan-3-yl)-2-methoxyphenyl)amino)-7-methoxy-quinazolin-6-yl)oxy)pyrrolidin-1-yl)prop-2-en-1-one] | 
20 | 150 to 1000 | C=CC(=O)N1CCC(Oc2cc3c(Nc4cc(-c5ccn6ncnc6c5)ccc4OC)ncnc3cc2OC)CC1 [Example 69, 1-(4-((4-((5-([1,2,4]triazolo[1,5-a]pyridin-7-yl)-2-methoxyphenyl)amino)-7-methoxy-quinazolin-6-yl)oxy)piperidin-1-yl)prop-2-en-1-one] | 
21 | 150 to 1000 | COc1ccc(-c2ccco2)cc1Nc1ncnc2cc(OC)c(OC3CCN(C(=O)/C=C/CN(C)C)CC3)cc12 [Example 120, (E)-4-(dimethylamino) 1-(4-((4-((5-(furan-2-yl)-2-methoxyphenyl)amino)-7-methoxy-quinazolin-6-yl)oxy)piperidin-1-yl)but-2-en-1-one] | 
